The results in this text go back to ChEMBL document CHEMBL3822442, “Synthesis and Pharmacological Characterization of Novel Glucagon-like Peptide-2 (GLP-2) Analogues with Low Systemic Clearance” (J Med Chem, 2016).

Assay type in all cases: cell-based
Assay [1] deals with Glucagon receptor (Homo sapiens) (UniProt P47871). Put plainly: Agonist activity at human GCGR expressed in HEK293 cells after 5 hrs by luciferase reporter gene assay. (In a reporter assay the amount or activity of a reporter protein is the signal.)
The target of assay [2] is Glucagon-like peptide 1 receptor (Homo sapiens, UniProt P43220). In words: Agonist activity at human GLP1R expressed in HEK293 cells after 5 hrs by luciferase reporter gene assay.
Another assay relates to HEK293. In words: Selectivity ratio of EC50 for human GLP1R expressed in HEK293 cells to EC50 for human GLP2R expressed in HEK293.
For assay [3], the target named is T1, Glucagon-like peptide 2 receptor (Homo sapiens, UniProt O95838).
T1 sequence (O95838 whole entry): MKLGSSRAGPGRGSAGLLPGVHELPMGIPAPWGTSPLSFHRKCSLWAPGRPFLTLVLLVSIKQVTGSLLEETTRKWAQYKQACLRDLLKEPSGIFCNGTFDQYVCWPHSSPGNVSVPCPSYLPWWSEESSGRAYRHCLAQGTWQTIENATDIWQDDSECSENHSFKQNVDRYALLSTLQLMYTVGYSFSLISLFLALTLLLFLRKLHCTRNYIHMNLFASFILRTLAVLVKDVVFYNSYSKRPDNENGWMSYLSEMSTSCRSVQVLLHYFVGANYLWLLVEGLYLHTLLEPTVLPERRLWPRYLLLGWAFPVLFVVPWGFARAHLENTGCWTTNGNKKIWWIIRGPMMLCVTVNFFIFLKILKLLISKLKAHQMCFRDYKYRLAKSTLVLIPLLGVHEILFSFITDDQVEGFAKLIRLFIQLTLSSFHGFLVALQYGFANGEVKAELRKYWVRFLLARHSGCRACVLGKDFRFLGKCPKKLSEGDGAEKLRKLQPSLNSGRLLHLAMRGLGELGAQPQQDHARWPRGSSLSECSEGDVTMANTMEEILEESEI
In words: Agonist activity at human GLP2R expressed in HEK293 cells after 5 hrs by luciferase reporter gene assay.

The target of assay [4] is T2, Glucagon-like peptide 2 receptor (Homo sapiens) (UniProt O95838).
T2 sequence (whole entry): T1 sequence (O95838 whole entry)
In words: Potency index, ratio of compound EC50 to compound 2 EC50 for human GLP2R expressed in HEK293 cells.

Active and inactive are the calls of the source. The rule behind the calls is not given here.

Chain of Glucagon-like peptide 1 receptor (P43220 whole entry): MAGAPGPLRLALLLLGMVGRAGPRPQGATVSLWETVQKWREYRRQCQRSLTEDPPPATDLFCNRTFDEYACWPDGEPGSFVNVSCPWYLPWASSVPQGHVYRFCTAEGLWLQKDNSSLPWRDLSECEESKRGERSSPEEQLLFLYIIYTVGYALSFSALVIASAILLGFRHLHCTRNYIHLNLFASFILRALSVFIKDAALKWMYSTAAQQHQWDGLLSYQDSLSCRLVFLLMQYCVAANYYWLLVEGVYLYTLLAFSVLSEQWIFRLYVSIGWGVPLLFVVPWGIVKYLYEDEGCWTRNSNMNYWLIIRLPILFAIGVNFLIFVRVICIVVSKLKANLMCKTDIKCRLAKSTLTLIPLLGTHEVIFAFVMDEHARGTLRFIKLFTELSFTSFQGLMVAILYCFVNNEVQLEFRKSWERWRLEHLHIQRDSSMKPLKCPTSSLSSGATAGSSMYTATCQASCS
Chain of Glucagon receptor (Homo sapiens) (P47871 whole entry): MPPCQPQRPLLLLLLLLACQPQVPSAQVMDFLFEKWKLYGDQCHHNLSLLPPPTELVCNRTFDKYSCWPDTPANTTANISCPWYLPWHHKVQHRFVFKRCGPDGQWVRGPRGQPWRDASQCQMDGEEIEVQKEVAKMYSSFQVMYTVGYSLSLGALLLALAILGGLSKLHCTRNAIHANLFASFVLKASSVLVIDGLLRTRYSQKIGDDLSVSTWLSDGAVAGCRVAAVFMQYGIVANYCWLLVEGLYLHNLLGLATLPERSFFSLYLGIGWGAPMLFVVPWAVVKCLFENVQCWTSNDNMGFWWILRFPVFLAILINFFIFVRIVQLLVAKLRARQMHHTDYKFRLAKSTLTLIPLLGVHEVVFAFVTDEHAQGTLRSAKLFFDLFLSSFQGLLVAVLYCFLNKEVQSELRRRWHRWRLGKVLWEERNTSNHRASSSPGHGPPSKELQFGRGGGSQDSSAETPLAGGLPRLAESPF

Usually EC50 stands for the concentration needed to bring the measured effect to its halfway point. With `CCCCC(NC(=O)[C@H](CCC(=O)O)NC(=O)[C@H](CC(=O)O)NC(=O)[C@H](CO)NC(=O)[C@H](Cc1ccccc1)NC(=O)[C@H](CO)NC(=O)CNC(=O)[C@H](CC(=O)O)NC(=O)CNC(=O)[C@@H](N)Cc1cnc[nH]1)C(=O)N[C@@H](CC(N)=O)C(=O)N[C@H](C(=O)N[C@H](C(=O)N[C@@H](CC(C)C)C(=O)N[C@@H](CC(=O)O)C(=O)N[C@@H](CC(N)=O)C(=O)N[C@@H](CC(C)C)C(=O)N[C@@H](C)C(=O)N[C@@H](C)C(=O)N[C@H](CCCNC(=N)N)C(=O)N[C@@H](CC(=O)O)C(=O)N[C@@H](Cc1ccccc1)C(=O)N[C@H](C(=O)N[C@@H](CC(N)=O)C(=O)N[C@@H](Cc1c[nH]c2ccccc12)C(=O)N[C@@H](CC(C)C)C(=O)N[C@H](C(=O)N[C@@H](CCC(N)=O)C(=O)N[C@H](C(=O)N[C@@H](CCCCN)C(N)=O)[C@@H](C)O)[C@@H](C)CC)[C@@H](C)CC)[C@@H](C)CC)[C@@H](C)O` (stereo not given in full), the result in assay [1] was inactive. The EC50 is above 1000 nM in assay [2] and 2.2 nM in assay [3]. The Ratio EC50 is above 450 with HEK293 and 10 in assay [4].
With `CCCCC(NC(=O)[C@H](CCC(=O)O)NC(=O)[C@H](CC(=O)O)NC(=O)[C@H](CO)NC(=O)[C@H](Cc1ccccc1)NC(=O)[C@H](CO)NC(=O)CNC(=O)[C@H](CC(=O)O)NC(=O)CNC(=O)[C@@H](N)Cc1cnc[nH]1)C(=O)N[C@@H](CC(N)=O)C(=O)N[C@@H](C(=O)N[C@H](C(=O)N[C@@H](CC(C)C)C(=O)N[C@@H](CC(=O)O)C(=O)N[C@@H](CC(N)=O)C(=O)N[C@@H](CC(C)C)C(=O)N[C@@H](C)C(=O)N[C@@H](C)C(=O)N[C@@H](CCCNC(=N)N)C(=O)N[C@@H](CC(=O)O)C(=O)N[C@@H](Cc1ccccc1)C(=O)N[C@H](C(=O)N[C@@H](CC(N)=O)C(=O)N[C@@H](Cc1c[nH]c2ccccc12)C(=O)N[C@@H](CC(C)C)C(=O)N[C@H](C(=O)N[C@@H](CCC(N)=O)C(=O)N[C@H](C(=O)N[C@@H](CCCCN)C(N)=O)[C@@H](C)O)[C@@H](C)CC)[C@@H](C)CC)[C@@H](C)CC)[C@H](C)O` (stereo not given in full), the outcome in assay [1] was inactive. In addition, the 50% effective concentration (EC50) was above 1000 nM in assay [2] and 1.5 nM in assay [3]. In addition, the results for the Ratio EC50 (in the assay on HEK293; in assay [4]) were above 660 and 6.8, respectively.
The corresponding values for `CCCCC(NC(=O)[C@@H](CCC(=O)O)NC(=O)[C@H](CC(=O)O)NC(=O)[C@H](CO)NC(=O)[C@H](Cc1ccccc1)NC(=O)[C@H](CO)NC(=O)CNC(=O)[C@H](CC(=O)O)NC(=O)CNC(=O)[C@@H](N)Cc1cnc[nH]1)C(=O)N[C@@H](CC(N)=O)C(=O)N[C@H](C(=O)N[C@H](C(=O)N[C@@H](CC(C)C)C(=O)N[C@@H](CC(=O)O)C(=O)N[C@@H](CC(N)=O)C(=O)N[C@@H](CC(C)C)C(=O)N[C@@H](C)C(=O)N[C@@H](C)C(=O)N[C@@H](CCCNC(=N)N)C(=O)N[C@@H](CC(=O)O)C(=O)N[C@@H](Cc1ccccc1)C(=O)N[C@H](C(=O)N[C@@H](CC(N)=O)C(=O)N[C@@H](Cc1c[nH]c2ccccc12)C(=O)N[C@@H](CC(C)C)C(=O)N[C@H](C(=O)N[C@@H](CCC(N)=O)C(=O)N[C@H](C(=O)N[C@@H](CCCCN)C(N)=O)[C@@H](C)O)[C@@H](C)CC)[C@@H](C)CC)[C@@H](C)CC)[C@@H](C)O` (stereo not given in full) are “inactive”, above 1000 nM, 7.1 nM, above 140 and 32.
In the same order, the values of `CCCCC(NC(=O)[C@H](CCC(=O)O)NC(=O)[C@H](CC(=O)O)NC(=O)[C@H](CO)NC(=O)[C@H](Cc1ccccc1)NC(=O)[C@H](CO)NC(=O)CNC(=O)[C@H](CC(=O)O)NC(=O)CNC(=O)[C@@H](N)Cc1cnc[nH]1)C(=O)N[C@@H](CC(N)=O)C(=O)N[C@H](C(=O)N[C@H](C(=O)N[C@@H](CC(C)C)C(=O)N[C@@H](CC(=O)O)C(=O)N[C@@H](CC(N)=O)C(=O)N[C@@H](CC(C)C)C(=O)N[C@@H](C)C(=O)N[C@@H](C)C(=O)N[C@@H](CCCNC(=N)N)C(=O)N[C@H](CC(=O)O)C(=O)N[C@@H](Cc1ccccc1)C(=O)N[C@H](C(=O)N[C@@H](CC(N)=O)C(=O)N[C@@H](Cc1c[nH]c2ccccc12)C(=O)N[C@@H](CC(C)C)C(=O)N[C@H](C(=O)N[C@@H](CCC(N)=O)C(=O)N[C@H](C(=O)N[C@@H](CCCCN)C(N)=O)[C@@H](C)O)[C@@H](C)CC)[C@@H](C)CC)[C@@H](C)CC)[C@@H](C)O` (stereo not given in full) are “inactive”, above 1000 nM, 0.47 nM, above 2100 and 2.1.
For the compound `CCCCC(NC(=O)[C@H](CCC(=O)O)NC(=O)[C@H](CC(=O)O)NC(=O)[C@H](CO)NC(=O)[C@H](Cc1ccccc1)NC(=O)[C@H](CO)NC(=O)CNC(=O)[C@H](CC(=O)O)NC(=O)CNC(=O)[C@@H](N)Cc1cnc[nH]1)C(=O)N[C@@H](CC(N)=O)C(=O)N[C@H](C(=O)N[C@H](C(=O)N[C@@H](CC(C)C)C(=O)N[C@@H](CC(=O)O)C(=O)N[C@H](CC(N)=O)C(=O)N[C@@H](CC(C)C)C(=O)N[C@@H](C)C(=O)N[C@@H](C)C(=O)N[C@@H](CCCNC(=N)N)C(=O)N[C@@H](CC(=O)O)C(=O)N[C@@H](Cc1ccccc1)C(=O)N[C@H](C(=O)N[C@@H](CC(N)=O)C(=O)N[C@@H](Cc1c[nH]c2ccccc12)C(=O)N[C@@H](CC(C)C)C(=O)N[C@H](C(=O)N[C@@H](CCC(N)=O)C(=O)N[C@H](C(=O)N[C@@H](CCCCN)C(N)=O)[C@@H](C)O)[C@@H](C)CC)[C@@H](C)CC)[C@@H](C)CC)[C@@H](C)O` (stereo not given in full), in assay [1], the result was inactive. The values for the EC50 in assay [2] and in assay [3] were above 1000 nM and 1.5 nM, respectively. Also, the Ratio EC50 in the assay with HEK293 was above 660; in assay [4] it was 6.8.
The corresponding values for `CCCCC(NC(=O)[C@H](CCC(=O)O)NC(=O)[C@H](CC(=O)O)NC(=O)[C@H](CO)NC(=O)[C@H](Cc1ccccc1)NC(=O)[C@H](CO)NC(=O)CNC(=O)[C@H](CC(=O)O)NC(=O)CNC(=O)[C@@H](N)Cc1cnc[nH]1)C(=O)N[C@@H](CC(N)=O)C(=O)N[C@H](C(=O)N[C@@H](C(=O)N[C@@H](CC(C)C)C(=O)N[C@@H](CC(=O)O)C(=O)N[C@@H](CC(N)=O)C(=O)N[C@@H](CC(C)C)C(=O)N[C@@H](C)C(=O)N[C@@H](C)C(=O)N[C@@H](CCCNC(=N)N)C(=O)N[C@@H](CC(=O)O)C(=O)N[C@@H](Cc1ccccc1)C(=O)N[C@H](C(=O)N[C@@H](CC(N)=O)C(=O)N[C@@H](Cc1c[nH]c2ccccc12)C(=O)N[C@@H](CC(C)C)C(=O)N[C@H](C(=O)N[C@@H](CCC(N)=O)C(=O)N[C@H](C(=O)N[C@@H](CCCCN)C(N)=O)[C@@H](C)O)[C@@H](C)CC)[C@@H](C)CC)[C@H](C)CC)[C@@H](C)O` (stereo not given in full) are “inactive”, above 1000 nM, 0.35 nM, above 2800 and 1.6.
For `CCCCC(NC(=O)[C@H](CCC(=O)O)NC(=O)[C@H](CC(=O)O)NC(=O)[C@H](CO)NC(=O)[C@H](Cc1ccccc1)NC(=O)[C@@H](CO)NC(=O)CNC(=O)[C@H](CC(=O)O)NC(=O)CNC(=O)[C@@H](N)Cc1cnc[nH]1)C(=O)N[C@@H](CC(N)=O)C(=O)N[C@H](C(=O)N[C@H](C(=O)N[C@@H](CC(C)C)C(=O)N[C@@H](CC(=O)O)C(=O)N[C@@H](CC(N)=O)C(=O)N[C@@H](CC(C)C)C(=O)N[C@@H](C)C(=O)N[C@@H](C)C(=O)N[C@@H](CCCNC(=N)N)C(=O)N[C@@H](CC(=O)O)C(=O)N[C@@H](Cc1ccccc1)C(=O)N[C@H](C(=O)N[C@@H](CC(N)=O)C(=O)N[C@@H](Cc1c[nH]c2ccccc12)C(=O)N[C@@H](CC(C)C)C(=O)N[C@H](C(=O)N[C@@H](CCC(N)=O)C(=O)N[C@H](C(=O)N[C@@H](CCCCN)C(N)=O)[C@@H](C)O)[C@@H](C)CC)[C@@H](C)CC)[C@@H](C)CC)[C@@H](C)O` (stereo not given in full), the outcome in assay [1] was inactive. Besides, the EC50 in assay [2] is above 1000 nM; in assay [3] it was 8.1 nM. Moreover, the Ratio EC50 in the assay on HEK293 was above 120; in assay [4] it was 37.
The corresponding values for `CCCCC(NC(=O)[C@H](CCC(=O)O)NC(=O)[C@H](CC(=O)O)NC(=O)[C@H](CO)NC(=O)[C@H](Cc1ccccc1)NC(=O)[C@H](CO)NC(=O)CNC(=O)[C@H](CC(=O)O)NC(=O)CNC(=O)[C@@H](N)Cc1cnc[nH]1)C(=O)N[C@@H](CC(N)=O)C(=O)N[C@H](C(=O)N[C@H](C(=O)N[C@@H](CC(C)C)C(=O)N[C@@H](CC(=O)O)C(=O)N[C@@H](CC(N)=O)C(=O)N[C@@H](CC(C)C)C(=O)N[C@@H](C)C(=O)N[C@H](C)C(=O)N[C@@H](CCCNC(=N)N)C(=O)N[C@@H](CC(=O)O)C(=O)N[C@@H](Cc1ccccc1)C(=O)N[C@H](C(=O)N[C@@H](CC(N)=O)C(=O)N[C@@H](Cc1c[nH]c2ccccc12)C(=O)N[C@@H](CC(C)C)C(=O)N[C@H](C(=O)N[C@@H](CCC(N)=O)C(=O)N[C@H](C(=O)N[C@@H](CCCCN)C(N)=O)[C@@H](C)O)[C@@H](C)CC)[C@@H](C)CC)[C@@H](C)CC)[C@@H](C)O` (stereo not given in full) are “inactive”, above 1000 nM, 14 nM, above 71 and 64.
